Molecular target: T1, Tyrosine-protein phosphatase non-receptor type 1 [1-298] (Homo sapiens, UniProt P18031)
T1 construct: 1-298
T1 sequence (P18031 whole entry): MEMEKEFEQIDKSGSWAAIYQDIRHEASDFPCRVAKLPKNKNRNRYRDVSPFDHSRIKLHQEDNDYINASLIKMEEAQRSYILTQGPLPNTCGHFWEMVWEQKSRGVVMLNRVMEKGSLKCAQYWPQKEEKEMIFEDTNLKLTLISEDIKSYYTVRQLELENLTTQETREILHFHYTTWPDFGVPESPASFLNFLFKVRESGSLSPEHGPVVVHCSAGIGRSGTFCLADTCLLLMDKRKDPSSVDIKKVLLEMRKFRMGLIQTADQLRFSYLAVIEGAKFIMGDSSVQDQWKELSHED
Assay: Phosphatase Inhibition Assay

Compound	IC50 [nM]	IC50 (pH 7, 22 °C) [nM]
O=C1CC(c2ccc(C[C@H](NS(=O)(=O)c3ccccc3)c3nc4ccccc4[nH]3)cc2)S(=O)(=O)N1 (stereo partly drawn) [N-[(1S)-1-(1H-1,3-benzodiazol-2-yl)-2-[4-(1,1,3-trioxo-1,2-thiazolidin-5-yl)phenyl]ethyl]benzenesulfonamide]	120	–
CN1CCOc2cc(S(=O)(=O)N[C@@H](Cc3ccc([C@@H]4CC(=O)NS4(=O)=O)cc3)c3nc4ccccc4[nH]3)ccc21 [N-[(1S)-1-(1H-benzoimidazol-2-yl)-2-[4-[(5S)-1,1,3-trioxo-1,2-thiazolidin-5-yl]phenyl]ethyl]-7-methyl-10-oxa-7-azabicyclo[4.4.0]deca-2,4,11-triene-3-sulfonamide]	–	59
O=C1C[C@@H](c2ccc(C[C@H](NC(=O)C(F)(F)F)c3nc4ccc(C(F)(F)F)cc4[nH]3)cc2)S(=O)(=O)N1 [N-{(1S)-2-[4-(1,1-dioxido-3-oxoisothiazolidin-5-yl)phenyl]-1-[5-(trifluoromethyl)-1H-benzimidazol-2-yl]ethyl}-2,2,2-trifluoroacetamide]	–	110
O=C(Cc1ccc(C(F)(F)P(=O)(O)O)cc1)N[C@@H](Cc1ccccc1)C(=O)NCCc1ccc(C(F)(F)P(=O)(O)O)cc1 [[(4-{2-[(2S)-2-(1-{4-[difluoro(phosphono)methyl]phenyl}acetamido)-3-phenylpropanamido]ethyl}phenyl)difluoromethyl]phosphonic acid]	–	46

— BindingDB's records for doi:10.1074/jbc.M607913200 (Incyte, 2006)
